Test results reported in patent US20180008587A1, “THIOHYDANTOIN ANDROGEN RECEPTOR ANTAGONISTS FOR THE TREATMENT OF CANCER” (Jaressen Pharmaceutica NV, priority 2016, published 2018).
Positions count from the first letter of the chain named. Read-outs that look alike come from different tables or passages of the source.

Columns and labels:
Type in all cases: cell-based
[1] = biological target: T1, F876L mutant Androgen Receptor (AR-F876L) (Homo sapiens, UniProt P10275, F877L); assay: LNCaP-AR-F876L AG reporter assay (ARE firefly luciferase, agonist mode); conditions: for Emax: read-out: LNCaP-AR-F876L AG MAX % Stim
T1 construct: expressed in transfected cells; host or cells: LNCaP (LNCaP F876L)
T1 sequence (P10275 1-920 F877L): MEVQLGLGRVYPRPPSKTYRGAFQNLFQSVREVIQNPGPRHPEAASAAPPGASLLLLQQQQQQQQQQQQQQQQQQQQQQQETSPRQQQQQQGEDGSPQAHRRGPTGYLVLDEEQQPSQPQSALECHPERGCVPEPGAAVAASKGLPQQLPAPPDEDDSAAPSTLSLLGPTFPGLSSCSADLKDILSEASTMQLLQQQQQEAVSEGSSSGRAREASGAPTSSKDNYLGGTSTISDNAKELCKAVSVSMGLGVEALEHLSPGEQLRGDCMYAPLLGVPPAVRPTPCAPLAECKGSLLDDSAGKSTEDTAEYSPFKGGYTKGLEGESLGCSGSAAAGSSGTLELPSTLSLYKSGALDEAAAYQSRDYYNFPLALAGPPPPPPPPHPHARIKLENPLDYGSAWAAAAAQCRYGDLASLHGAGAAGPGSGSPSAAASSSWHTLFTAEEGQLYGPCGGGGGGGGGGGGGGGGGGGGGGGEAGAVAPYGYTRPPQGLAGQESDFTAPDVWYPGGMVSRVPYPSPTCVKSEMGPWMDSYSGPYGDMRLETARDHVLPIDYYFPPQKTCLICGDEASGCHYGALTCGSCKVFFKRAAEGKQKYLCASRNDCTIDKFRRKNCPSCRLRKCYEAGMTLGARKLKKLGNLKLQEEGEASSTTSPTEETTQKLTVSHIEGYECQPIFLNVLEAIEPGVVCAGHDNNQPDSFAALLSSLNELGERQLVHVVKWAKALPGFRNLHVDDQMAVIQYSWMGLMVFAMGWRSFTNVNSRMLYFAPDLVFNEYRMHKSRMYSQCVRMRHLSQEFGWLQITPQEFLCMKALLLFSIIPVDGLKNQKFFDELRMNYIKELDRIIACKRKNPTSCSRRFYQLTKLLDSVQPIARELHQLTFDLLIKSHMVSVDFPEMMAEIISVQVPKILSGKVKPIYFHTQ
Summary of the method: (§1)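 Read-out is luciferase luminescence taken 1 h after Steady-Glo addition, following 20-24 h compound exposure at 37 °C in LNCaP pools stably carrying wild-type or F876L AR. Cells were grown in charcoal-stripped serum. Antagonist wells received agonist at 400 pM (WT) or 600 pM (F876L).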

[2] = biological target: T1, F876L mutant Androgen Receptor (AR-F876L); assay: LNCaP-AR-F876L ANT reporter assay (ARE firefly luciferase, antagonist mode); conditions: for Emax: read-out: LNCaP-AR-F876L ANT MAX % Inh; for IC50: read-out: LNCaP-AR-F876L ANT pIC50 (converted)
Summary of the method: (§2)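 Cells: stable LNCaP pools, AR-wt or AR-F876L, in charcoal-stripped serum. Agonist challenge for antagonist mode was 400 pM (WT) and 600 pM (F876L). Luminescence was measured after 20-24 h incubation.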

[3] = biological target: T2, wild-type Androgen Receptor (AR-wt) (Homo sapiens, UniProt P10275); assay: LNCaP-AR-wt AG reporter assay (ARE firefly luciferase, agonist mode); conditions: for Emax: read-out: LNCaP-AR-wt AG MAX % Stim
T2 construct: expressed in transfected cells; host or cells: LNCaP (LNCaP AR (cs))
T2 sequence (P10275 1-920): T1 sequence (P10275 1-920 F877L) with L877F
Summary of the method: as §1

[4] = biological target: T2, wild-type Androgen Receptor (AR-wt); assay: LNCaP-AR-wt ANT reporter assay (ARE firefly luciferase, antagonist mode); conditions: for IC50: antagonist mode, 400 pM R-1881 challenge, −Log10(IC50 [Molar]), read-out: LNCaP-AR-wt ANT pIC50 (converted); for Emax: read-out: LNCaP-AR-wt ANT MAX % Inh
Summary of the method: as §2

[5] = agonist mode, −Log10(EC50 [Molar]), read-out: LNCaP-AR-F876L AG pEC50 (converted)
[6] = maximum % stimulation (agonist response) over tested concentration range
[7] = maximum % inhibition of R1881 control response over tested concentration range
[8] = agonist mode, −Log10(EC50 [Molar]), read-out: LNCaP-AR-wt AG pEC50 (converted)

Row | SMILES | EC50 [1, 5] | Emax [1, 6] | Emax [2, 7] | IC50 [2] | EC50 [3, 8] | Emax [3, 6] | IC50 [4] | Emax [4, 7] | EC50 [1] | Emax [1] | Emax [2] | EC50 [3] | Emax [3] | Emax [4]
1 | N#Cc1ncc(N2C(=O)C3(CCC3)N(c3ccc(C(=O)NCCc4ccccn4)c(F)c3)C2=S)cc1C(F)(F)F [Cpd 15, 4-[6-[6-cyano-5-(trifluoromethyl)-3-pyridyl]-5-oxo-7-thioxo-6,8-diazaspiro[3.4]octan-8-yl]-2-fluoro-N-[2-(2-pyridyl)ethyl]benzamide] | > 15100 nM | 0% | 102% | 46.8 nM | > 15100 nM | -0.1% | 209 nM | 103% | – | – | – | – | – | –
2 | N#Cc1ncc(N2C(=O)C3(CCC3)N(c3ccccc3)C2=S)cc1C(F)(F)F [Cpd 70, 5-(5-oxo-8-phenyl-7-thioxo-6,8-diazaspiro[3.4]octan-6-yl)-3-(trifluoromethyl)pyridine-2-carbonitrile] | – | – | – | 513 nM | – | – | 741 nM | – | > 15100 nM | 0.9% | 99.5% | > 15100 nM | 0.3% | 99.2%
3 | N#Cc1ncc(N2C(=O)C3(CCC3)N(c3ccc(C4CCOCC4)cc3)C2=S)cc1C(F)(F)F [Cpd 89, 5-[5-oxo-8-(4-tetrahydropyran-4-ylphenyl)-7-thioxo-6,8-diazaspiro[3.4]octan-6-yl]-3-(trifluoromethyl)pyridine-2-carbonitrile] | > 15100 nM | 1.4% | 96.2% | 437 nM | > 15100 nM | 0.3% | 631 nM | 101% | – | – | – | – | – | –
4 | CS(=O)(=O)N1CCC(Oc2ccc(N3C(=S)N(c4cnc(C#N)c(C(F)(F)F)c4)C(=O)C34CCC4)cc2)CC1 [Cpd 122, 5-[8-[4-[(1-methylsulfonyl-4-piperidyl)oxy]phenyl]-5-oxo-7-thioxo-6,8-diazaspiro[3.4]octan-6-yl]-3-(trifluoromethyl)pyridine-2-carbonitrile] | > 15100 nM | 6.2% | 90.5% | 437 nM | > 15100 nM | 2.2% | 302 nM | 99.7% | – | – | – | – | – | –
5 | N#Cc1ncc(N2C(=O)C3(CCC3)N(c3ccc(C(=O)NCc4ccco4)c(F)c3)C2=S)cc1C(F)(F)F [Cpd 76, 4-[6-[6-cyano-5-(trifluoromethyl)-3-pyridyl]-5-oxo-7-thioxo-6,8-diazaspiro[3.4]octan-8-yl]-2-fluoro-N-(2-furylmethyl)benzamide] | > 15100 nM | 1% | 91.6% | 851 nM | > 15100 nM | 1.9% | 1450 nM | 97.8% | – | – | – | – | – | –
6 | N#Cc1ncc(N2C(=O)C3(CCC3)N(c3ccc(C(=O)NCc4ccccc4Cl)c(F)c3)C2=S)cc1C(F)(F)F [Cpd 31, N-[(2-chlorophenyl)methyl]-4-[6-[6-cyano-5-(trifluoromethyl)-3-pyridyl]-5-oxo-7-thioxo-6,8-diazaspiro[3.4]octan-8-yl]-2-fluoro-benzamide] | – | – | – | 2240 nM | – | – | 2240 nM | – | > 15100 nM | 0.3% | 91% | > 15100 nM | 0.2% | 98.6%
7 | N#Cc1ncc(N2C(=O)C3(CCC3)N(c3ccc(C(=O)NCCCN4CCCC4=O)c(F)c3)C2=S)cc1C(F)(F)F [Cpd 37, 4-[6-[6-cyano-5-(trifluoromethyl)-3-pyridyl]-5-oxo-7-thioxo-6,8-diazaspiro[3.4]octan-8-yl]-2-fluoro-N-[3-(2-oxopyrrolidin-1-yl)propyl]benzamide] | > 15100 nM | 0.3% | 96.5% | 398 nM | > 15100 nM | 0.3% | 1200 nM | 99.3% | – | – | – | – | – | –
8 | N#Cc1ncc(N2C(=O)C3(CCC3)N(c3cccc4ccccc34)C2=S)cc1C(F)(F)F [Cpd 34, 5-[8-(1-naphthyl)-5-oxo-7-thioxo-6,8-diazaspiro[3.4]octan-6-yl]-3-(trifluoromethyl)pyridine-2-carbonitrile] | – | – | – | 617 nM | – | – | 562 nM | – | > 15100 nM | 0.2% | 99.4% | > 15100 nM | -0.1% | 99.7%
9 | COCCNC(=O)c1ccc(N2C(=S)N(c3cnc(C#N)c(C(F)(F)F)c3)C(=O)C23CCC3)cc1F [Cpd 46, 4-[6-[6-cyano-5-(trifluoromethyl)-3-pyridyl]-5-oxo-7-thioxo-6,8-diazaspiro[3.4]octan-8-yl]-2-fluoro-N-(2-methoxyethyl)benzamide] | – | – | – | 631 nM | – | – | 891 nM | – | > 15100 nM | 0.2% | 98.3% | > 15100 nM | -0.1% | 99.9%
10 | Cc1ccc(-c2ccc(N3C(=S)N(c4cnc(C#N)c(C)c4)C(=O)C34CCC4)cc2)o1 [Cpd 50, 3-methyl-5-[8-[4-(5-methyl-2-furyl)phenyl]-5-oxo-7-thioxo-6,8-diazaspiro[3.4]octan-6-yl]pyridine-2-carbonitrile] | > 15100 nM | – | 98.2% | 282 nM | > 15100 nM | – | 363 nM | 98% | – | 0.2% | – | – | 0.7% | –
11 | Cc1cc(N2C(=O)C3(CCC3)N(c3ccc(C(=O)Nc4cncc(F)c4)c(F)c3)C2=S)cnc1C#N [Cpd 113, 4-[6-(6-cyano-5-methyl-3-pyridyl)-5-oxo-7-thioxo-6,8-diazaspiro[3.4]octan-8-yl]-2-fluoro-N-(5-fluoro-3-pyridyl)benzamide] | > 15100 nM | 3.1% | 98.2% | 871 nM | > 15100 nM | 25.3% | 1170 nM | 97.4% | – | – | – | – | – | –
12 | N#Cc1ncc(N2C(=O)C3(CCC3)N(c3ccc(Oc4cncnc4)cc3)C2=S)cc1C(F)(F)F [Cpd 88, 5-[5-oxo-8-(4-pyrimidin-5-yloxyphenyl)-7-thioxo-6,8-diazaspiro[3.4]octan-6-yl]-3-(trifluoromethyl)pyridine-2-carbonitrile] | – | – | – | 138 nM | – | – | 631 nM | – | > 15100 nM | 0.7% | 87.3% | > 15100 nM | 0.7% | 97.2%
